This is an account of results in EP0534396B1, “2-Substituted indane-2-carboxyalkyl derivatives useful as inhibitors of enkephalinase and ace” (MERRELL PHARMACEUTICALS INC., priority 1991, dated 1993).

SMILES strings stand for the structures.

The target of test [1] is T1, Enkephalinase (Rattus norvegicus, UniProt P07861).
T1 construct: The enzyme is extracted from the microvilli fraction by using Triton X-100; from tissue; host or cells: rat kidney (microvilli fraction)
T1 sequence (P07861 1-750): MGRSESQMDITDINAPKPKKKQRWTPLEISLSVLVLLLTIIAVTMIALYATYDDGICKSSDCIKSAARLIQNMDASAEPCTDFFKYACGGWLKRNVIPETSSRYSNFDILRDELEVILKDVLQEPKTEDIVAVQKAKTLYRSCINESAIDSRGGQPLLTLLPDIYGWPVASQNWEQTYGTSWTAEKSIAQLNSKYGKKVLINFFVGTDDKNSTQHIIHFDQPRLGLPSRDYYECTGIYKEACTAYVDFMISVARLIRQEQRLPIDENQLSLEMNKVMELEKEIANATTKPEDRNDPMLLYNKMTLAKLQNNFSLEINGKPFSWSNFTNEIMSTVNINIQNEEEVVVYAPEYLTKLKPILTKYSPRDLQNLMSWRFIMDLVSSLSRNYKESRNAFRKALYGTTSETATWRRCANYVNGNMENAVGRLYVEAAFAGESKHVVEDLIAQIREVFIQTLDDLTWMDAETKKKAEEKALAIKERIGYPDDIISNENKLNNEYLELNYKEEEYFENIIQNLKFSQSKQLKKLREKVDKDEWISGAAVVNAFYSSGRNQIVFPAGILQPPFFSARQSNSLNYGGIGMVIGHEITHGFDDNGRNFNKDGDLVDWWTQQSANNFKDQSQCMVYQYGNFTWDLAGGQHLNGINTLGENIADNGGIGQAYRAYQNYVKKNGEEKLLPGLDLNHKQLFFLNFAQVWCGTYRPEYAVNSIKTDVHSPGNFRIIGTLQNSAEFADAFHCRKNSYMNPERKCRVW
As to the kind of experiment: Enkephalinase inhibition, fluorometric enzyme assay. The class given is biochemical. To be noted: enzyme partially purified from rat kidney; 50mM HEPES buffer (pH 7.4); 12 µM substrate dansyl-D-AlaGly(p-nitro)PheGly; 25°C. The source says:
Enkephalinase is partially purified from rat kidney. The enzyme is extracted from the microvilli fraction by using Triton X-100 according to the method of Malfroy and Schwartz [J.Biol.Chem. 259, 14365-14370 (1984)] or by using a proteolytic treatment according to the method of Almenoff and Orlowski [Biochem. 22, 590-599 (1983)]. The enzyme is further purified by anion exchange chromatography (Mono Q™ column, Pharmacia) using a Pharmacia FPLC system. The enzyme activity may be measured by the fluorometric methods of Florentin et al. [Anal.Biochem. 141, 62-69 (1984)] or of Almenoff and Orlowski [J.Neurochemistry 42, 151-157 (1984)]. The enzyme is assayed in 50mM HEPES buffer (pH 7.4) in a 3.0 mL reaction volume containing 12 µM of the substrate dansyl-D-AlaGly(p-nitro)PheGly (Km=40µM) at 25°C. The substrate (and inhibitor) is added from a concentrated stock solution in DMSO (up to 0.1 mL DMSO final volume). The enzyme in a small volume (approximately 0.1 µg of FPLC purified protein) is added to initiate the reaction and the rate of fluorescense increase is recorded continuously using a fluorometer (excitation at 339nm, emission at 562nm).

Test [2] addresses ACE (Homo sapiens, UniProt P12821). As to the kind of experiment: ACE inhibition, spectrophotometric enzyme assay. To be noted: spectrophotometric substrate of Holmquist et al.; buffer system of Ryan. It counts as biochemical. The text has this: The enzymatic activity of ACE is monitored using the spectrophotometric substrate described by Holmquist et al. [Anal.Biochem. 95, 540-548 (1979)] and the buffer system described by Ryan [Methods of Enzymatic Analysis, 3rd ed., H. U. Bergmeyer, editor; vol. V, Verlag Chemie, Weinheim, 1983, pp. 20-34].

Sequence of ACE (P12821 30-1306, species assumed): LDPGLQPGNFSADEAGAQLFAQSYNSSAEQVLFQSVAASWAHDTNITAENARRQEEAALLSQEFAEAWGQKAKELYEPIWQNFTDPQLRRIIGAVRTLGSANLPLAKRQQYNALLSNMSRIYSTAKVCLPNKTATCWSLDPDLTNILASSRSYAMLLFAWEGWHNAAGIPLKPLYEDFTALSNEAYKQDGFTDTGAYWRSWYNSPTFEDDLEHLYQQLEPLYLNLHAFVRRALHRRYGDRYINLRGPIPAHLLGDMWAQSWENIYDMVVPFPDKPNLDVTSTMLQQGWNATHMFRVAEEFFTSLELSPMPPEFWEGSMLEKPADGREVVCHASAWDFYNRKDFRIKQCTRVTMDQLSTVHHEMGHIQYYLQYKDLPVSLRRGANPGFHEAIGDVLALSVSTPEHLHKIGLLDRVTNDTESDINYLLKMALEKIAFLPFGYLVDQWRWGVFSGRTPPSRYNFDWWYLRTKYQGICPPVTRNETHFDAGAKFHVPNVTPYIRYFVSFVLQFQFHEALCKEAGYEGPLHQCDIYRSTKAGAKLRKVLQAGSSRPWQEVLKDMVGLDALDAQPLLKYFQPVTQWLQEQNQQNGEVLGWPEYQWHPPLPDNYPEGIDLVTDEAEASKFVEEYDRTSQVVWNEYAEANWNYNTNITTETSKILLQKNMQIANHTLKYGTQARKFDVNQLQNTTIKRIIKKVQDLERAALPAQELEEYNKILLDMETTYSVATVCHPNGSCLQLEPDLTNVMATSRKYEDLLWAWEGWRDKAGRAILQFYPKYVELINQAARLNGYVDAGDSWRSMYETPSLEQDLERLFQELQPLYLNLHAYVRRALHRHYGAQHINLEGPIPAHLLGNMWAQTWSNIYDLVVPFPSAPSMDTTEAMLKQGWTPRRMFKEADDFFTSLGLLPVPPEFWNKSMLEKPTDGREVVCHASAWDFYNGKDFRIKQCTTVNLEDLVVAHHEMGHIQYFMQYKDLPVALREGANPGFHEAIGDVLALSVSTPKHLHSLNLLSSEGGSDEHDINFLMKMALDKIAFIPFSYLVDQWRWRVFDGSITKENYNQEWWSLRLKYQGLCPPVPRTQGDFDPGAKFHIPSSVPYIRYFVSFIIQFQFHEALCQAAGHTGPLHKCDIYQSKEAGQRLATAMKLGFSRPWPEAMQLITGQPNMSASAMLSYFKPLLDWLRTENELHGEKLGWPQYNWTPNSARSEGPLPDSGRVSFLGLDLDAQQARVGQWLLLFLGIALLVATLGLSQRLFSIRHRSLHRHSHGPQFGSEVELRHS

As to `O=C(O)CC1(C(=O)N[C@H]2Cc3ccccc3[C@H]3CCC[C@@H](C(=O)O)N3C2=O)CCCC1` (relative stereo) [100,137, [4S-[4α, 7α(R*), 12bβ]]-7-[(1-Carboxymethyl-cyclopent-1-yl)carbonylamino]-1,2,3,4,6,7,8,12b-octahydro-6-oxopyrido[2,1-a][2]benzazepine-4-carboxylic acid], the Ki (in general, a dissociation constant, usually derived from enzyme kinetics or from competition with a known ligand) in test [1] came out at 0.4 nM. Regarding `O=C(O)CC1(C(=O)N[C@H]2Cc3ccccc3[C@H]3CCC[C@@H](C(=O)O)N3C2=O)Cc2ccccc2C1` (relative stereo) [102,353, [4S-[4α, 7α(R*), 12bβ]]-7-[(2-Carboxymethyl-indan-2-yl)carbonylamino]-1,2,3,4,6,7,8,12b-octahydro-6-oxopyrido[2,1-a][2]benzazepine-4-carboxylic acid], the inhibitory constant (Ki) in test [1] was less than 0.2 nM; in test [2], less than 104 nM.
